This note sets out measurements from PubChem BioAssay (NCI).

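Cultured in 96-well plates, cells were exposed to test compound for 48 hours across five concentrations. GI50 marks 50% less growth. TGI: total growth inhibition.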

Among the test systems are HCT-116 colon; HL-60(TB) leukemia; HOP-62 NSCLC; U251 CNS; SNB-75 CNS; MOLT-4 leukemia; SF-539 CNS; M14 melanoma; UACC-257 melanoma; NCI/ADR-RES ovarian.
Common to all, as to assay: DTP human tumour cell line panel, 48 h

Take `O=[N+]([O-])c1ccc(C2=Nc3ccccc3SC(c3ccccc3)C2)cc1` (stereo not given): the TGI with HCT-116 colon was 24.2 µM; with HL-60(TB) leukemia it was 40 µM; in the test with HOP-62 NSCLC it was 58.5 µM; in the test on U251 CNS, 26.3 µM; in the test on SNB-75 CNS it was 37.1 µM; in the test on MOLT-4 leukemia, above 100 µM. Moreover, the TGI was determined as 40.3 µM with SF-539 CNS, 36.3 µM in the test on M14 melanoma and 51.6 µM in the test with UACC-257 melanoma.

As to `CCOC(=O)C1CN(C2CC2)CCC1=O` (stereo not given), the TGI in the test with HCT-116 colon, in the test on HL-60(TB) leukemia, in the test with HOP-62 NSCLC, in the test on U251 CNS, in the test with SNB-75 CNS and in the test with MOLT-4 leukemia was above 100 µM throughout. For the same compound, the TGI in the test on NCI/ADR-RES ovarian, in the test on M14 melanoma and with UACC-257 melanoma was above 100 µM each time.

With `CC(C)(C)OC(=O)n1c(-c2ccccc2F)cc(=O)c2cc3c(cc21)OCO3`, the TGI in the test on HCT-116 colon is above 31.8 µM; with HOP-62 NSCLC, above 100 µM; with U251 CNS, above 32.9 µM; in the test on SNB-75 CNS it was above 100 µM; in the test on MOLT-4 leukemia it was 10 µM; in the test with NCI/ADR-RES ovarian, 0.0555 µM. In addition, the TGI is above 72.9 µM with SF-539 CNS and above 100 µM in the test on M14 melanoma.

Take `O=C1CS(=O)C23c4cc5ccccc5n4CCC2CCCN13` (stereo not given): the TGI in the test on HCT-116 colon, in the test with HL-60(TB) leukemia, in the test with HOP-62 NSCLC, in the test on U251 CNS, with MOLT-4 leukemia and in the test with NCI/ADR-RES ovarian was above 100 µM in each case. The TGI in the test with SF-539 CNS, in the test on M14 melanoma and in the test with UACC-257 melanoma was above 100 µM throughout.

On to `COC(=O)C1=C(C)NC(C)=C([N+](=O)[O-])C1c1cccc(N=O)c1` (stereo not given), for which the TGI was 23 µM in the test with HCT-116 colon; above 100 µM in the test with HL-60(TB) leukemia; 34.5 µM in the test with HOP-62 NSCLC; 32 µM in the test with U251 CNS; above 100 µM in the test on MOLT-4 leukemia; 45.9 µM in the test on NCI/ADR-RES ovarian. The TGI turned out to be 30.9 µM in the test on SF-539 CNS, 25.8 µM in the test on M14 melanoma and 25.1 µM in the test on UACC-257 melanoma.

As to `CC(C)(C)OC(=O)C1C(=O)NC(=O)CC1C(COCc1ccccc1)OCc1ccccc1` (stereo not given), the TGI was 32.7 µM with HCT-116 colon; 60.6 µM in the test with HL-60(TB) leukemia; 26.6 µM in the test on HOP-62 NSCLC; 40.2 µM in the test with U251 CNS; 52.9 µM with MOLT-4 leukemia; 40.6 µM in the test with SF-539 CNS. The values for the TGI with M14 melanoma and in the test on UACC-257 melanoma were 34.8 µM and 41.4 µM, respectively.

`CC1(C)[C@@H](Cn2cnc3c(Cl)nc(N)nc32)CC[C@@]1(C)CO`: the TGI in the test with HCT-116 colon, with HOP-62 NSCLC, in the test with U251 CNS, in the test with SNB-75 CNS, in the test on NCI/ADR-RES ovarian and with SF-539 CNS was above 100 µM each time. Also, the TGI in the test with M14 melanoma is above 100 µM; in the test on UACC-257 melanoma, 79.2 µM.

For `CCCOC(=O)NC(C)C(=O)NC(CCC(=O)NC(CCCC(N)C(=O)O)C(=O)NC(C)C(=O)O)C(=O)O` (stereo not given), the TGI in the test on HCT-116 colon was above 100 µM; in the test with HL-60(TB) leukemia, 42.1 µM; in the test with HOP-62 NSCLC, above 100 µM; with U251 CNS it was 55.9 µM; in the test on MOLT-4 leukemia, 41.9 µM; in the test with NCI/ADR-RES ovarian it was 37 µM. In addition, the TGI with SF-539 CNS is 31.3 µM; in the test with M14 melanoma, 40.6 µM.

For `c1ccc(C2=Nn3c(CCCCCCCCc4nnc5n4N=C(c4ccccc4)CS5)nnc3SC2)cc1`, the concentration for total growth inhibition (TGI) in the test on HCT-116 colon was above 100 µM; in the test on HOP-62 NSCLC, 44 µM; in the test with U251 CNS, 36.8 µM; in the test with SNB-75 CNS, 33.6 µM; with MOLT-4 leukemia, above 77.9 µM; in the test on NCI/ADR-RES ovarian, above 100 µM. Also, the TGI was 46.4 µM with SF-539 CNS, above 100 µM with M14 melanoma and above 100 µM in the test on UACC-257 melanoma.

As to `CN(C)P(=O)(Oc1occc1C(O)Cc1ccccc1)N(C)C` (stereo not given), the TGI with HCT-116 colon, with HOP-62 NSCLC, in the test with U251 CNS, with SNB-75 CNS, in the test on NCI/ADR-RES ovarian and with SF-539 CNS was above 100 µM each time. For the same compound, the TGI in the test on M14 melanoma and in the test with UACC-257 melanoma was above 100 µM each time.

With `c1csc(-c2c3ccc(=[N+]4CCCCC4)cc-3oc3cc(N4CCCCC4)ccc23)c1`, the GI50 in the test with HL-60(TB) leukemia is 0.145 µM; in the test on HOP-62 NSCLC it was 0.0648 µM; with SNB-75 CNS, 0.123 µM; with MOLT-4 leukemia, 0.0515 µM; with SF-539 CNS, 0.0446 µM; with M14 melanoma, 0.0776 µM. Besides, the GI50 in the test on UACC-257 melanoma was 0.0982 µM. In addition, the TGI in the test on HL-60(TB) leukemia stood at 0.547 µM; with HOP-62 NSCLC, 0.199 µM; in the test with SNB-75 CNS it was 0.508 µM; with MOLT-4 leukemia, 0.473 µM; in the test with SF-539 CNS, 0.195 µM; in the test on M14 melanoma, 0.215 µM. The compound further returned a TGI in the test with UACC-257 melanoma of 0.321 µM.

For `Cc1ccc(-c2c(C#N)c(-c3ccc([N+](=O)[O-])cc3)c(C#N)c(=O)n2NS(=O)(=O)c2ccccc2)cc1`, the TGI was above 100 µM with HCT-116 colon; above 100 µM in the test on HOP-62 NSCLC; above 100 µM in the test with U251 CNS; above 100 µM in the test with SNB-75 CNS; 52.8 µM in the test with MOLT-4 leukemia; above 100 µM in the test with NCI/ADR-RES ovarian. Further, the concentration for total growth inhibition (TGI) with SF-539 CNS, with M14 melanoma and in the test with UACC-257 melanoma was above 100 µM each time.

On to `CN1COCc2cc3cc4c(cc3nc21)OCCO4`, for which the TGI in the test with HCT-116 colon, with HOP-62 NSCLC, with U251 CNS, in the test with SNB-75 CNS, with MOLT-4 leukemia and with NCI/ADR-RES ovarian was above 100 µM in each case. In addition, the TGI with SF-539 CNS, in the test with M14 melanoma and with UACC-257 melanoma was above 100 µM each time.

Take `Cc1cc2c(nn1)-c1ccccc1C2=O`: the TGI in the test with HCT-116 colon, in the test with HL-60(TB) leukemia, in the test on HOP-62 NSCLC, in the test on U251 CNS, in the test with MOLT-4 leukemia and in the test on NCI/ADR-RES ovarian was above 10 µM in each case. For the same compound, the TGI in the test with SF-539 CNS and with M14 melanoma was above 10 µM throughout.
